In patent US7247626B2, “Pyrazolopyrimidine derivatives and pharmaceutical compositions containing them” (SmithKline Beecham Corporation, priority 2002, dated 2007):
pIC50: −log10 of the molar value.

System: HSV-1
Test: HSV-1 infection of Vero 76 cells, viral DNA hybridization capture assay
Format: cell-based
Settings: Human alphaherpesvirus 1; HSV-1 (MOI=0.001) in Vero 76 cells, 40–48 hours incubation, HSV DNA hybridization with chemiluminescence detection
Procedure: Vero 76 cells were maintained in MEM with Earle's salts, L-glutamine, 8% FBS (Hyclone, A-1111-L) and 100 units/mL Penicillin-100 μg/mL Streptomycin. For assay conditions, FBS was reduced to 2%. Cells are seeded into 96-well tissue culture plates at a density of 5×10^4 cells/well after being incubated for 45 min at 37° C. in the presence of HSV-1 or HSV-2 (MOI=0.001). Test compounds are added to the wells and the plates are incubated at 37° C. for 40–48 hours. Cell lysates are prepared as follows: media was removed and replaced with 150 μL/well 0.2 N NaOH with 1% Igepal CA 630 or NP-40. Plates were incubated up to 14 days at room temperature in a humidified chamber to prevent evaporation.
For the detection probe, a gel-purified, digoxigenin-labeled, […] PCR fragment of the HSV UL-15 sequence was utilized. PCR conditions included 0.5 μM primers, 180 μM dTTP, 20 μM dUTP-digoxigenin (Boehringer Mannheim 1558706), 200 μM each of dATP, dCTP, and dGTP, 1×PCR Buffer II (Perkin Elmer), 2.5 mM, MgCl2, 0.025 units/μL of AmpliTaq Gold polyerase (Perkin Elmer), and 5 ng a gel-purified HSV DNA per 100 μL Extension conditions were 10 min at 95° C., followed by 30 cycles of 95° C. for 1 min, 55° C. for 30 sec, and 72° C. for 2 min. The amplification was completed with a 10-min incubation at 72° C. Primers were selected to amplify a 728 bp probe spanning a section of the HSV1 UL15 open reading frame (nucleotides 249–977). Single-stranded transcripts were purified with Promega M13 Wizard kits. The final product was mixed 1:1 with a mixture of 6 M GuSCN, 100 mM EDTA and 200 μg/mL herring sperm DNA and stored at 4° C.
The capture DNA plasmid (HSV UL13 region in pUC) was linearized by cutting with Xba I, denatured for 15 min at 95° C. and diluted immediately into Reacti-Bind DNA Coating Solution (Pierce, 17250, diluted 1:1 with TE buffer, pH 8) at 1 ng/μL 75 μl/well were added to Corning (#3922 or 9690) white 96-well plates and incubated at room temperature for at least 4 hrs before washing twice with 300 μL/well 0.2×SSC/0.05% Tween-20 (SSC/T buffer). The plates were then incubated overnight at room temperature with 150 μL/well 0.2 N NaOH, 1% IGEPAL and 10 μg/mL herring sperm DNA.
Twenty-seven (27) μL of cell lysate was combined with 45 μL of hydridization solution (final concentration: 3M GuSCN, 50 mM EDTA, 100 μg/ml salmon sperm DNA, 5× Denhardt's solution, 0.25× APE, and 5 ng of the digoxigenin-labeled detection probe). APE is 1.5 M NH4-acetate, 0.15 M NH4H2phosphate, and 5 mM EDTA adjusted to pH 6.0. Mineral oil (50 μL) was added to prevent evaporation. The hybridization plates were incubated at 95° C. for 10 minutes to denature the DNA, then incubated at 42° C. overnight. The wells were washed 6× with 300 μL/well SSC/T buffer then incubated with 75 μL/well anti-digoxigenin-HRP-conjugated antibody (Boehringer Mannheim 1207733, 1:5000 in TE) for 30 min at room temperature. The wells were washed 6× with 300 μL/well with PBS/0.05% Tween-20 before 75 μL/well SuperSignal LBA substrate (Pierce) was added. The plates were incubated at room temperature for 30 minutes and chemiluminescence was measured in a Wallac Vietor reader.
The following results were obtained for HSV-1.

SMILES | pIC50
Fc1ccc(-c2nn3c(NC4CCCC4)nccc3c2-c2ccnc(NC3CC3)n2)cc1 [Example 2, N-Cyclopentyl-3-[2-(cyclopropylamino)pyrimidin-4yl]-2-(4-fluorophenyl)pyrazolo[1,5-c]pyrimidin-7-amine] | 5.26
Clc1cccc(-c2nn3cnccc3c2-c2ccnc(NC3CCCC3)n2)c1 [Example 3, 4-[2-(3-Chlorophenyl)pyrazolo[1,5-c]pyrimidin-3-yl]-N-cyclopentylpyrimidin-2-amine] | 5.41
CSc1nccc2c(-c3ccnc(NC4CCCC4)n3)c(-c3cccc(Cl)c3)nn12 [Example 4, 4-[2-(3-Chlorophenyl)-7-(methylthio)pyrazolo[1,5-c]pyrimidin-3-yl]-N-cyclopentylpyrimidin-2-amine] | 4.95
Oc1nccc2c(-c3ccnc(NC4CCCC4)n3)c(-c3cccc(Cl)c3)nn12 [Example 8, 2-(3-Chlorophenyl)-3-[2-(cyclopentylamino)-4-pyrimidinyl]pyrazolo[1,5-c]pyrimidin-7-ol] | 5.60
CSc1nc(NC2CCCC2)n2nc(-c3ccccc3)c(-c3ccnc(F)c3)c2n1 [Example 9, N-Cyclopentyl-8-(2-fluoro-4-pyridinyl)-2-(methylsulfanyl)-7-phenylpyrazolo[1,5-a][1,3,5]triazin-4-amine] | 5.15
c1ccc(-c2nn3c(NC4CCCC4)ncnc3c2-c2ccnc(NC3CCCC3)n2)cc1 [Example 11, N-Cyclopentyl-8-[2-(cyclopentylamino)-4-pyrimidinyl]-7-phenylpyrazolo[1,5-a][1,3,5]triazin-4-amine] | 5.19
Fc1ccc(-c2nn3c(NC4CCCC4)nccc3c2-c2ccnc(Nc3nc4ccccc4s3)n2)cc1 [Example 14, 3-[2-(1,3-Benzothiazol-2-ylamino)pyrimidin-4-yl]-N-cyclopentyl-2-(4-fluorophenyl)pyrazolo[1,5-c]pyrimidin-7-amine] | < 4.40

These reach a higher pIC50. Values come first.

pIC50 | SMILES
5.82 | Fc1ccc(-c2nn3c(NC4CCCC4)nccc3c2-c2ccnc(Nc3ccccc3)n2)cc1 [Example 13, 3-(2-Anilinopyrimidin-4-yl)-N-cyclopentyl-2-(4-fluorophenyl)pyrazolo-[1,5-c]pyrimidin-7-amine]
6.00 | CCCCNc1nccc(-c2c(-c3ccc(F)cc3)nn3c(NC4CCCC4)nccc23)n1 [Example 12, 3-[2-(Butylamino)pyrimidin-4-yl]-N-cyclopentyl-2-(4-fluorophenyl)pyrazolo[1,5-c]pyrimidin-7-amine]
6.14 | Fc1ccc(-c2nn3c(NC4CCCC4)nccc3c2-c2ccnc(NC3CCCC3)n2)cc1 [Example 1, N-Cyclopentyl-3-[2-(cyclopentylamino)pyrimidin-4-yl]-2-(4-fluorophenyl)pyrazolo[1,5-c]pyrimidin-7-amine]
6.34 | Clc1cccc(-c2nn3c(NC4CCCC4)nccc3c2-c2ccnc(NC3CCCC3)n2)c1 [Example 5, 2-(3-Chlorophenyl)-N-cyclopentyl-3-[2-(cyclopentylamino)-4-pyrimidinyl]pyrazolo[1,5-c]pyrimidin-7-amine]
6.52 | COCCNc1nccc2c(-c3ccnc(NC4CCCC4)n3)c(-c3cccc(Cl)c3)nn12 [Example 7, 2-(3-Chlorophenyl)-3-[2-(cyclopentylamino)-4-pyrimidinyl]-N-(2-methoxyethyl)pyrazolo[1,5-c]pyrimidin-7-amine]
6.70 | Clc1cccc(-c2nn3c(N4CCOCC4)nccc3c2-c2ccnc(NC3CCCC3)n2)c1 [Example 6, 4-[2-(3-Chlorophenyl)-7-(4-morpholinyl)pyrazolo[1,5-c]pyrimidin-3-yl]-N-cyclopentyl-2-pyrimidinamine]
6.92 | c1ccc(-c2nn3c(NC4CCCC4)nc(NC4CCCC4)nc3c2-c2ccnc(NC3CCCC3)c2)cc1 [Example 10, N^2,N^4-Dicyclopentyl-8-[2-(cyclopentylamino)-4-pyridinyl]-7-phenylpyrazolo[1,5-a][1,3,5]triazine-2,4-diamine]
